Data as given in patent US20160228484A1, “TOMATO POWDER-BASED COMPOSITION” (MEDIAPHARMA S.R.L., priority 2013, published 2016).

Legend:
Type in all cases: in vivo, mouse
TRAMP mice = assay: Kaplan-Meier survival of TRAMP mice fed fortified diets; conditions: Lycopene treated, not significantly different from Control Diet (11%), P=0.384, unpublished observations
Source text: In man, early prostate tumorigenesis appears to be associated with a dysplasia that starts with proliferative inflammatory atrophy which may progress to low-grade Prostatic Intraepithelial Neoplasia (PIN), to high-grade PIN, to primary cancer, to metastatic cancer, and to hormone refractory cancer after hormonal treatment (23,24). Transgenic adenocarcinoma of the mouse prostate (TRAMP) is a model in which the progression of prostate cancer mirrors the stages of the human form, from PIN to undifferentiated, androgen independent tumor (25). Expression od the SV40 early genes driven by the prostate-specific promoter probasin leads to prostate cell transformation and all TRAMP mice develop prostate cancer spontaneously. This model, therefore, is regularly used to assess chemoprevention of prostate cancer (22).
In a recent paper (36), we reported that a tomato diet (Control Diet enriched with 10% of a “tomato powder”, whose composition is reported in Table 1), increased TRAMP mice survival.

VEGF = VEGF serum levels during different diets in TRAMP mice; conditions: FIG. 4; diet fortified 10%; two-ways ANOVA; RED007 P<0.0001; Lycopene P=0.204
Source text: FIG. 4: VEGF serum levels during different diets. Values represent mean ±SD(n8mice). […] RED007 may be also designated “Lycoprozen”. The two terms are interchangeable herein.
(§1) FIG. 6: VEGF serum levels during different diets. Values represent mean±SD(n8mice). The control diet was fortified with a 10% mixture of A and B components. The two components were mixed according to different Acomponent/Bcomponent ratios (w/w), i.e. 99.5:0.5, 98.0:2.0 (RED007 diet), and 96.0:4.0, respectively.

IL6 = IL6 serum levels during different diets in TRAMP mice; conditions: FIG. 5; diet fortified 10%; two-ways ANOVA; RED007 P<0.0001; Lycopene P=0.314
Source text: FIG. 5: IL6 serum levels during different diets. Values represent mean±SD(n8mice).
as §1, with “7: IL6” for “6: VEGF”, “mean ±SD(n8mice).” for “mean±SD(n8mice).”

CC(C)=CCC/C(C)=C/C=C/C(C)=C/C=C/C(C)=C/C=C/C=C(C)/C=C/C=C(C)/C=C/C=C(\C)CCC=C(C)C [Lycopene, lycopene]
survival proportion (TRAMP mice): 17% | VEGF serum levels compared to Control Diet (VEGF): did not significantly modify | IL6 serum levels compared to Control Diet (IL6): did not significantly modify
